Data on two compounds can be found in US20150086480A1, “HETEROARYL INHIBITORS OF PDE4” (Tetra Discovery Partners, LLC, priority 2013, published 2015).

Assay [1] deals with human PDE4D7 (mutation of serine 54 to aspartic acid) (Homo sapiens, UniProt Q08499, S190D). Briefly: Kinetic assay of PDE4 activity (cAMP hydrolysis, coupled-enzyme fluorescence). The class given is biochemical. Conditions: inhibition of cAMP hydrolysis by human PDE4D; each concentration tested in duplicate; FIG. 1; read-out: One-half maximal inhibition of PDE4D (IC50). How it is done:
PDE4D inhibition is measured by the method of Burgin et al, (2010) Design of Phosphodiesterase Type 4D (PDE4D) Allosteric Modulators for Cognition with Improved Safety. Nature Biotechnology 28:63-70. Each concentration of Example 1 was tested in duplicate (round symbols).
PDE4 activity may be measured by any method known in the art. Here, a kinetic assay of cAMP hydrolysis by purified PDE4 was used, in which PDE4 activity was measured by coupling the formation of the PDE4 reaction product, 5′-adenosine monophosphate, to the oxidation of reduced nicotinamide adenine dinucleotide (NADH) by the use of three coupling enzymes (myokinase, pyruvate kinase and lactate dehydrogenase), which allows fluorescent determination of reaction rates. Assays are performed in 96-well plates in a total volume of 200 μl/well. Compounds are dissolved in dimethylsulfoxide (DMSO) and added to plates in a volume of 10 μl followed by addition of 165 μl of assay mix. Plates are pre-incubated at 25° C. for 15 min and the reactions are initiated by the addition of 25 μl of cAMP followed by thorough mixing. Reaction rates are measured by monitoring the decrease in fluorescence using excitation at 355 nm and emission at 460 nm for a period of 10 min in a fluorescence plate reader. Initial rates (slopes) are determined from linear portions of the progress curves. […]

For the next assay, the system named is recombinant human PDE4. To be noted: read-out: reported IC50 with respect to inhibiting recombinant human PDE4; cited from earlier work.

human PDE4D7 (mutation of serine 54 to aspartic acid), sequence (Q08499 1-748 isoform Q08499-11 S129D): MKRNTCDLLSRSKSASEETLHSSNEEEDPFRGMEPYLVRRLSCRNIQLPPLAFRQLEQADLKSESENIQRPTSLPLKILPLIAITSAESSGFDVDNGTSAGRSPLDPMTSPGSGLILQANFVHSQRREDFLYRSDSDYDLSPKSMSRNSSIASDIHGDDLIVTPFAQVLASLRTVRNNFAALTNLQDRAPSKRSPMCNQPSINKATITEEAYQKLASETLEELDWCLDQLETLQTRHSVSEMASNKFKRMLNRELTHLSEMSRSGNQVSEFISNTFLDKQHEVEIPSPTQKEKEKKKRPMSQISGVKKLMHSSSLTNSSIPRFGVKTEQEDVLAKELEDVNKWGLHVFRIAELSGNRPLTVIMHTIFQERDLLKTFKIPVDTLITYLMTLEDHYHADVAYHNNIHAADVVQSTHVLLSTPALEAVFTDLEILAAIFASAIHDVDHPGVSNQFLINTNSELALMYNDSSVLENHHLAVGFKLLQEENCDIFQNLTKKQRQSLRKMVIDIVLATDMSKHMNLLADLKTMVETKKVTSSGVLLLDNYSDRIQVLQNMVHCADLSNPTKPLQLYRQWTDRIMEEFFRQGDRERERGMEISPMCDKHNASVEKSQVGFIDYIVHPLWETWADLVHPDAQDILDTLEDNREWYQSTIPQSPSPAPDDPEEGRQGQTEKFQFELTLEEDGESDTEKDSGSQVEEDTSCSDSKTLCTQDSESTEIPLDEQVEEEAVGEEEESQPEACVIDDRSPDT

Turning to `O=[N+]([O-])c1cccc(-c2cc(Cc3ccc(F)cc3)cc3c2OCC3)c1` [Example 1, 5-[(4-fluorophenyl)methyl]-7-(3-nitrophenyl)-2,3-dihydrobenzofuran], the IC50 (as a rule, the midpoint of a concentration-inhibition curve) in assay [1] came out at 0.15 nM. Take `COc1ccc(C2CNC(=O)C2)cc1OC1CCCC1` (centres unmarked) [rolipram]: the IC50 with recombinant human PDE4 is around 200 nM.
